Experimental data: patent US20130289119A1, “FORMULATION COMPRISING ARGININE, USE AND PREPARATION THEREOF” (OSPEDALE SAN RAFFAELE S.R.L., priority 2010, published 2013)

Protocol: In the present invention, the bio-availability and the vascular and metabolic effect of an oral administration of L-arginine (6.6 g) contained in the formulation of the invention (6 biscuits) compared either to the same food preparation (6 biscuits) prepared without the addition of L-arginine or to 6.6 g of powdered L-arginine were evaluated in healthy subjects.
Seven healthy subjects (2M/5F) participated in the study.
A complete medical history and a physical examination including height, weight, waist and hip circumferences and blood pressure measurements were taken for each subject. It was asked to all subjects to follow a 2000 kcal/die standard diet, according to LARN (Livelli di Assunzione Giornalieri Raccomandati di Nutrienti per la Popolazione Italiana) recommendations and to complete a 3 day food diary (two working days and one holiday day) before every test to obtain accurate information on short-term food intake. Food diaries were elaborated with a dedicated software to decode foods (Nutritionist Pro 2.5, Axial System, Stafford, Tex.), modified introducing the L-arginine contents, obtained from INRAN and USDA database, in more than 700 different foods items.
The portion of 6 biscuits further contained a total amount of 21.9 g of carbohydrates (17.9 g of starch and 4.0 g of sugars), 3.6 g of proteins, 7.5 g of fats and 4.3 g of fibers. A fixed amount of 250 ml of natural water was taken with the food preparation. […] A fixed amount of 250 ml of natural water was taken with the food preparation. • The third test consisted in the oral administration of 6.6 g of powdered L-arginine diluted in 250 ml of natural water. The Study Design is represented in FIG. 2. After an overnight fast, a 20-gauge plastic cannula (Abbocath T; Abbocath, Ireland LTD, Sling, Ireland) was inserted in a large antecubital vein for intermittent sampling. Samples for the evaluation of glucose, insulin, NOx and L-arginine levels were evaluated at 0, 30, 60, 90, 120, 180 and 240 minutes. c-GMP levels were evaluated at 0, 60, 120, 180 and 240 minutes.
Basal blood pressure was taken in supine position after 10 min of rest, and the mean of two measurements was used as the value, after that blood pressure was also taken at time 0, 120, 180 and 240 minutes. Forearm blood flow (FBF) was measured by strain-gauge venous occlusion plethysmography. Before any measurement was taken, the hand circulation was occluded using a wrist cuff inflated to 240 mmHg. Baseline blood flow was calculated as the mean of at least three values. Reactive hyperaemia (endothelium-dependent vasodilation) was measured after the release of a 5-min arterial occlusion, produced by inflating a standard sphygmomanometer cuff on the upper arm to 100 mmHg above systolic blood pressure (SBP). These measurement were performed at basal and every 60 min until the end of the study. Peripheral resistance was calculated as a ratio between mean blood pressure and the FBF.
Glucose levels were measured with spectrophotometric methods adapted to Cobas MIRA using commercial kits (ABX, Montpellier, France). Insulin and proinsulin levels were assayed with ELISA kits (Insulin ELISA, Mercodia, Uppsala, Sweden and Proinsulin ELISA, DRG, Marburg, Germany). NOx levels were evaluated through the measurement of metabolic end products, i.e., nitrite and nitrate, using enzymatic catalysis coupled with Griess reaction. c-GMP levels were measured with radioimmunoassay kits (NEN Life Science Products, Boston, Mass., USA). L-Arginine were extracted from plasma samples by cation-exchange Strata SCX 100-mg columns (Phenomenex) and assayed by high-performance liquid chromatography.

[1] = healthy subjects, oral 6.6 g L-arginine

N=C(N)NCCC[C@H](N)C(=O)O [powdered L-Arginine, L-arginine]
Incremental area under the curve for L-Arginine (ΔAUC L-Arginine) (both, human, in vivo, po): 15050 ± 1353 µmol/L | Percentage incremental increase of post-ischemic blood flow vs food preparation not containing L-Arginine (healthy subjects, forearm plethysmography): significantly (p<0.02) increased | cGMP plasma levels vs food preparation not containing L-Arginine [1]: significantly (p<0.03) higher | nitric oxide (NOx) plasma levels vs food preparation not containing L-Arginine [1]: significantly (p<0.03) higher | ΔAUC NOx vs food product not containing L-Arginine [1]: significantly (p<0.04) increased | ΔAUC cGMP vs food product not containing L-Arginine [1]: significantly (p<0.04) increased
